What was measured:
[1] = target: interaction between PD-1 and PD-L1 (Homo sapiens (Human), UniProt Q9NZQ7); assay: PD1-PDL1 HTRF binding activity test (Cisbio PD-1/PD-L1 binding assay kit)
Experimental: I. PD1-PDL1 HTRF Binding Activity Test
The effect of compounds of the examples of the present invention on the interaction between PD-1 and PD-L1 was determined by the PD-1/PD-L1 binding assay kit from Cisbio (#64ICP01PEG or 64ICP01PEH). The detailed experimental process was as follows: • 1. Pre-diluted compound solution, 4 μL of Tag1-PD-L1 and 4 μL of Tag2-PD1 were added to each well of a 384-well plate; • 2. After the mixture was incubated at room temperature for 15 min, 5 μL of anti-Tag1-Eu3+ antibody and 5 μL of anti-Tag2-XL665 antibody were then added; • 3. After incubated for 2 hrs at room temperature or overnight at 4° C., plates were read on Envision of Pelkin Elmer; and readings at 665 nm and 620 nm were recorded, and the ratio of the two readings was taken as a reading for each well; • 4. The reading of each well after compound treatment was compared with the reading of DMSO treated wells to obtain the percent inhibition of the compound; • 5. IC50 values of compounds and positive compounds of the examples of the present invention were determined by non-linear regression analysis of percent inhibition at different compound concentrations. II. Jurkat Reporter Gene Cellular Assay

[2] = Pharmacokinetic assay in mice; assay type: in vivo; conditions: male, mouse; ICR mice, PO 10 mg/kg, plasma, original compound detected
Experimental: III. Pharmacokinetic Assay in Mice
The purpose of this study was to study the pharmacokinetic behaviors of some compounds of the present invention, and administration routes were: per oral administration (PO) to ICR mice at a dose of 10 mg/kg.
The compounds used in this test came from the compounds of the specific examples of the present invention.
ICR mice, male, N=3, with the original source of Shanghai Sippr-BK Laboratory Animal Co. Ltd.
2.3 Preparation and Administration of Drug
The compounds were weighed, and dissolved in a solvent of 0.5% SDS+0.5% CMCNa. The mixture solutions were mixed well by shaking and ultrasonic treatment to obtain colorless clear solutions. The solutions were orally administered to nine mice after an overnight fast. The dosage of administration was 10 mg/kg.
1) With about 90 μL/time point, blood was drawn from the submaxillary vein, and heparin sodium was added for anticoagulation. The blood samples were placed onto the ice, and were centrifuged (centrifugation conditions: 8000 r/min, 6 min, 2-8° C.) within 1 hr to obtain plasmas.
2) The time points for blood sampling were at 0 hr, 0.25 hr, 0.5 hr, 1 hr, 2 hrs, 4 hrs, 6 hrs, 8 hrs and 24 hrs after administration. The samples were stored in a refrigerator at −20° C.
3) 40 μL of plasma sample was added to 160 μL of cold acetonitrile containing an internal standard, and the mixture solution was vortexed for 3 min and centrifuged at 11,000 r/min for 5 min.
4) 100 μL of supernate was taken and added to 100 μL of water, and 5 μL of the sample was taken and analyzed by LC/MS/MS.
Only the original compounds were analyzed for the compounds from the examples of the present invention and the reference compound from Example 158 of WO2020011209A1; and both the original compounds and possible products of ester hydrolysis, namely Example 217, were analyzed for the reference compound from Example 216 of WO2020011209A1.

[3] = Jurkat reporter gene cellular assay; assay type: cell-based; conditions: Homo sapiens; Jurkat/NF-κB-luc/PD1 + Raji-PD-L1 coculture, OKT3 1 μg/mL, 6 hrs, activation fold; read-out: Cell Activity EC50
Outline: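 Jurkat cells stably expressing human PD-1 and NF-κB-luciferase co-cultured with PD-L1-expressing Raji cells (5×10^4 each/well) under OKT3 (1 μg/mL final) with compound. Raji cells preincubated 20 min; luminescence read 6 h after Jurkat addition. EC50 from non-linear regression of fold activation over DMSO.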

interaction between PD-1 and PD-L1, sequence (Q9NZQ7 19-238): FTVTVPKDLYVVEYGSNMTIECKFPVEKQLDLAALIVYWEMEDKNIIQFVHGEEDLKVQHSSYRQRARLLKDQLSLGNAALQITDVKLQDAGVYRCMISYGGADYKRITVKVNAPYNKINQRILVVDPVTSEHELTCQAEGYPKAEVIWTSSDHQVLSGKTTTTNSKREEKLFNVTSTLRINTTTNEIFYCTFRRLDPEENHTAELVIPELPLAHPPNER

Row | IC50 [1] | AUC(0-t) [2] | Cmax [2] | MRT [2] | Tmax [2] | half-life [2] | EC50 [3] | SMILES
1 | 0.193 nM | 1950 ng·h/mL | 173 ng/mL | 9.6 h | 6 h | 5 h | 44.1 nM | COc1cc(/C(F)=C/c2cccc(-c3cccc(NC(=O)c4nc5c(n4C)CCN(CCC46CCC(C(=O)O)(CC4)C6)C5)c3Cl)c2Cl)ncc1CN1CCCC1 [Example 58, (Z)-4-(2-(2-((2,2′-dichloro-3′-(2-fluoro-2-(4-methoxy-5-(pyrrolidin-1-ylmethyl)pyridin-2-yl)vinyl)-[1,1′-biphenyl]-3-yl)carbamoyl)-1-methyl-1,4,6,7-tetrahydro-5H-imidazo[4,5-c]pyridin-5-yl)ethyl) bicyclo[2.2.1]heptane-1-carboxvlic acid]
2 | 0.299 nM | – | – | – | – | – | 47.5 nM | COc1cc(/C(F)=C/c2cccc(-c3cccc(NC(=O)c4nc5c(n4C)CCN(CCC46CCC(C(=O)O)(CC4)C6)C5)c3Cl)c2Cl)ncc1CN1CC[C@H](O)C1 [Example 59, (S,Z)-4-(2-(2-((2,2′-dichloro-3′-(2-fluoro-2-(5-((3-hydroxypyrrolidin-1-yl)methyl)-4-methoxypyridin-2-yl)vinyl)-[1,1′-biphenyl]-3-yl)carbamoyl)-1-methyl-1,4,6,7-tetrahydro-5H-imidazo[4,5-c]pyridin-5-yl)ethyl)bicyclo[2.2.1]heptane-1-carboxylic acid]
3 | 0.186 nM | 590 ng·h/mL | 442 ng/mL | 2 h | 0.5 h | 1.1 h | 50.6 nM | COc1cc(/C(F)=C/c2cccc(-c3cccc(NC(=O)c4nc5c(n4C)CCN(CCC46CCC(C(=O)O)(CC4)C6)C5)c3Cl)c2Cl)ncc1CN1CC[C@@H](C(=O)O)C1 [Example 73, (R,Z)-1-((6-(2-(3′-(5-(2-(4-carboxybicyclo[2.2.1]heptan-1-yl)ethyl)-1-methyl-4,5,6,7-tetrahydro-1H-imidazo[4,5-c]pyridine-2-carboxamido)-2,2′-dichloro-[1,1′-biphenyl]-3-yl)-1-fluorovinyl)-4-methoxypyridin-3-yl)methyl)pyrrolidine-3-carboxylic acid]
4 | 0.185 nM | 2650 ng·h/mL | 806 ng/mL | 2.9 h | 1.8 h | 1.8 h | 54.4 nM | COc1cc(/C(F)=C/c2cccc(-c3cccc(NC(=O)c4nc5c(n4C)CCN(CCC46CCC(C(=O)O)(CC4)C6)C5)c3Cl)c2Cl)ncc1CN1CC[C@@](C)(C(=O)O)C1 [Example 75, (R,Z)-1-((6-(2-(3′-(5-(2-(4-carboxybicyclo[2.2.1]heptan-1-yl)ethyl)-1-methyl-4,5,6,7-tetrahydro-1H-imidazo[4,5-c]pyridine-2-carboxamido)-2,2′-dichloro-[1,1′-biphenyl]-3-yl)-1-fluorovinyl)-4-methoxypyridin-3-yl)methyl)-3-methylpyrrolidine-3-carboxylic acid]

Second part, the compound before the results:

Row | SMILES | IC50 [1] | AUC(0-t) [2] | Cmax [2] | MRT [2] | Tmax [2] | half-life [2] | EC50 [3]
5 | Cc1c(/C=C(\F)c2nc3c(n2C)CCN(C(C)C)C3)cccc1-c1cccc(NC(=O)c2nc3c(n2C)CCN(CCC24CCC(C(=O)O)(CC2)C4)C3)c1C [Example 1, (Z)-4-(2-(2-((3′-(2-fluoro-2-(5-isopropyl-1-methyl-4,5,6,7-tetrahydro-1H-imidazo[4,5-c]pyridin-2-yl)vinyl)-2,2′-dimethyl-[1,1′-biphenyl]-3-yl)carbamoyl)-1-methyl-1,4,6,7-tetrahydro-5H-imidazo[4,5-c]pyridin-5-yl)ethyl)bicyclo[2.2.1]heptane-1-carboxylic acid] | 0.688 nM | 2490 ng·h/mL | 323 ng/mL | 8.3 h | 4 h | 5.2 h | 258 nM
6 | COc1cc(/C(F)=C/c2cccc(-c3cccc(NC(=O)c4nc5c(n4C)CCN(CCC46CCC(C(=O)O)(CC4)C6)C5)c3Cl)c2Cl)ncc1CN[C@H]1CC[C@@H](O)CC1 [Example 40, 4-(2-(2-((2,2′-dichloro-3′-((Z)-2-fluoro-2-(5-((((1S,4S)-4-hydroxycyclohexyl)amino)methyl)-4-methoxypyridin-2-yl)vinyl)-[1,1′-biphenyl]-3-yl)carbamoyl)-1-methyl-1,4,6,7-tetrahydro-5H-imidazo[4,5-c]pyridin-5-yl)ethyl)bicyclo[2.2.1]heptane-1-carboxylic acid] | 0.31 nM | – | – | – | – | – | 179 nM
7 | COc1cc(/C(F)=C/c2cccc(-c3cccc(NC(=O)c4nc5c(n4C)CCN(CCC46CCC(C(=O)O)(CC4)C6)C5)c3Cl)c2Cl)ncc1CNC(C)C [Example 41, (Z)-4-(2-(2-((2,2′-dichloro-3′-(2-fluoro-2-(5-((isopropylamino)methyl)-4-methoxypyridin-2-yl)vinyl)-[1,1′-biphenyl]-3-yl)carbamoyl)-l-methyl-1,4,6,7-tetrahydro-5H-imidazo[4,5-c]pyridin-5-yl)ethyl) bicyclo[2.2.1]heptane-1-carboxylic acid] | 0.249 nM | – | – | – | – | – | 86.7 nM
8 | COc1cc(/C(F)=C/c2cccc(-c3cccc(NC(=O)c4nc5c(n4C)CCN(CCC46CCC(C(=O)O)(CC4)C6)C5)c3Cl)c2Cl)ncc1CN1CCC(C)(O)C1 (stereo not shown) [Example 49, (Z)-4-(2-(2-((2,2′-dichloro-3′-(2-fluoro-2-(5-((3-hydroxy-3-methylpyrrolidin-1-yl)methyl)-4-methoxypyridin-2-yl)vinyl)-[1,1′-biphenyl]-3-yl)carbamoyl)-1-methyl-1,4,6,7-tetrahydro-5H-imidazo[4,5-c]pyridin-5-yl)ethyl)bicyclo[2.2.1]heptane-1-carboxylic acid] | 0.232 nM | 15100 ng·h/mL | 1010 ng/mL | 7.4 h | 2 h | 4 h | 46.2 nM
9 | COc1cc(/C(F)=C/c2cccc(-c3cccc(NC(=O)c4nc5c(n4C)CCN(CCC46CCC(C(=O)O)(CC4)C6)C5)c3Cl)c2Cl)ncc1CNC(C)(C)C [Example 50, (Z)-4-(2-(2-((3′-(2-(5-((tert-butylamino)methyl)-4-methoxypyridin-2-yl)-2-fluorovinyl)-2,2′-dichloro-[1,1′-biphenyl]-3-yl)carbamoyl)-1-methyl-1,4,6,7-tetrahydro-5H-imidazo[4,5-c]pyridin-5-yl)ethyl) bicyclo[2.2.1]heptane-1-carboxylic acid] | 0.731 nM | – | – | – | – | – | 54 nM

Source: US12473282B2, “Biphenyl fluorine double bond derivative, preparation method therefor, and pharmaceutical application thereof” (Abbisko Therapeutics Co., Ltd., priority 2020, dated 2025)
